Data published in US7820196B2, “Physiologically active agents containing vicinal dithioglycols and use thereof in various branches of economy” (priority 1999, dated 2010).

System: broiler chickens
Test: Example 6: effect of unithiol on productivity and meat quality of broiler chickens
Assay type: in vivo
Experimental: An experiment was conducted, on the inventors' initiative, on the experimental base of the All-Russia research and technological institute for aviculture (VNITIP) during which a study was given to the following tasks: • determination of an effect produced by unithiol (DMPS) on the productivity and meat quality of broiler chickens; • effect produced by unithiol on the accumulation of heavy metal compounds (mercury, cadmium, lead) in various tissues of poultry.
The experiment was carried out in a vivarium on broiler chickens of one cross. Poultry was grown in cell batteries from one day to six-week age. The operating parameters and feeding level met the recommendation VNITIP 1999. The experiment was conducted according to the diagram on Table 1.
The poultry population: 1 and 2 groups, 35 heads each; 3,4,5 groups—6 heads each.
1. Chicks' individual live weight; weighing at the age of one day, 2-, 4-, 6 weeks.
2. Average daily live weight increase of the broilers over a 6-week period.
3. Safety of the poultry population, the daily record keeping of the broilers lost, with the causes of murrain established.
4. Feathering conditions, individual evaluation.
5. Feed consumption over a period of growing by way of the daily record keeping and weighing of specifies feed for each and every group, as calculated per head and per kg of live weight increase.
6. Dressed small carcass mass, individually weighing in slaughtering at the age of 6 weeks.
7. Dressed yield of meat as calculated.
8. Classification of small carcasses according to GOST 25391-82.
9. Meat qualities by way of anatomically dressing the small carcasses of broilers.
10. Chemical meat composition on terms of a dry substance.
12. Fatty acid meat composition.

[1] = Group 2: BR + 17 mg unithiol/kg feed days 15-42
[2] = Group 4: BR + heavy metals + 17 mg unithiol/kg feed, both days 15-42
[3] = Group 5: BR + heavy metals days 15-35, 34 mg unithiol/kg feed days 36-42

O=S(=O)([O-])CC(S)CS.[Na+] (centres unmarked) [Unithiol, Sodium 2,3-Dimercaptopropane sulfonate]
feathering conditions (2nd group): best value of feathering conditions
feed remuneration with products (4th and 5th groups, unithiol as additive in feed): improved feed remuneration with products
organoleptic indices of meat (taste, organoleptic qualities of broths) (5nd group, unithiol additionally to feed): highest value as to organoleptic indices
rates of growth (Group 2: 17 mg/kg of feed since 2-week age): higher rates of growth
Dressed carcasses, weight [1]: 1310 gr
Feed consumption per head [1]: 3670 gr
Feed consumption per kg of gain in live weight [1]: 1.98 kg
Inflamed sores [1]: 14.2%
Meat category 1 [1]: 88.6%
Meat category 2 [1]: 11.4%
Meat yield [1]: 69.3%
chemical meat composition: Ash [1]: 0.99%
chemical meat composition: Dry substance [1]: 28.46%
chemical meat composition: Fat [1]: 7.79%
chemical meat composition: Protein [1]: 19.68%
chemical meat composition: Water [1]: 70.4%
fatty acid meat composition: Fatty acids (total) [1]: 29.58 mg per 100 gr of product
fatty acid meat composition: Heptadecanoic [1]: 0.24 mg per 100 gr of product
fatty acid meat composition: Heptadecynoic [1]: 0.14 mg per 100 gr of product
fatty acid meat composition: Isomyristic [1]: 0.16 mg per 100 gr of product
fatty acid meat composition: Isopentadecanoic [1]: 0.14 mg per 100 gr of product
fatty acid meat composition: Linoleic [1]: 6.41 mg per 100 gr of product
fatty acid meat composition: Linolenic [1]: 0.29 mg per 100 gr of product
fatty acid meat composition: Myristic [1]: 0.22 mg per 100 gr of product
fatty acid meat composition: Oleic [1]: 0.13 mg per 100 gr of product
fatty acid meat composition: Palmitic [1]: 7.05 mg per 100 gr of product
fatty acid meat composition: Palmitoleic [1]: 2.25 mg per 100 gr of product
fatty acid meat composition: Pentadecanoic [1]: 0.12 mg per 100 gr of product
fatty acid meat composition: Polyunsaturated [1]: 6.70 mg per 100 gr of product
fatty acid meat composition: Saturated and monounsaturated [1]: 22.88 mg per 100 gr of product
fatty acid meat composition: Stearic [1]: 2.44 mg per 100 gr of product
Dressed carcasses, weight [2]: 1217 gr
Feed consumption per head [2]: 3750 gr
Feed consumption per kg of gain in live weight [2]: 2.13 kg
Meat category 1 [2]: 66.7%
Meat category 2 [2]: 33.3%
Meat yield [2]: 67.6%
chemical meat composition: Ash [2]: 1.07%
chemical meat composition: Dry substance [2]: 25.71%
chemical meat composition: Fat [2]: 2.72%
chemical meat composition: Protein [2]: 21.92%
chemical meat composition: Water [2]: 73.0%
fatty acid meat composition: Fatty acids (total) [2]: 26.96 mg per 100 gr of product
fatty acid meat composition: Heptadecanoic [2]: 0.41 mg per 100 gr of product
fatty acid meat composition: Heptadecynoic [2]: 0.11 mg per 100 gr of product
fatty acid meat composition: Isomyristic [2]: 0.06 mg per 100 gr of product
fatty acid meat composition: Isopentadecanoic [2]: 0.03 mg per 100 gr of product
fatty acid meat composition: Linoleic [2]: 6.30 mg per 100 gr of product
fatty acid meat composition: Linolenic [2]: 0.25 mg per 100 gr of product
fatty acid meat composition: Myristic [2]: 0.15 mg per 100 gr of product
fatty acid meat composition: Oleic [2]: 8.39 mg per 100 gr of product
fatty acid meat composition: Palmitic [2]: 6.13 mg per 100 gr of product
fatty acid meat composition: Palmitoleic [2]: 1.71 mg per 100 gr of product
fatty acid meat composition: Pentadecanoic [2]: 0.05 mg per 100 gr of product
fatty acid meat composition: Polyunsaturated [2]: 6.55 mg per 100 gr of product
fatty acid meat composition: Saturated and monounsaturated [2]: 20.41 mg per 100 gr of product
fatty acid meat composition: Stearic [2]: 3.37 mg per 100 gr of product
Dressed carcasses, weight [3]: 1215 gr
Feed consumption per head [3]: 3780 gr
Feed consumption per kg of gain in live weight [3]: 2.17 kg
Meat category 1 [3]: 60.0%
Meat category 2 [3]: 40.0%
Meat yield [3]: 68.3%
chemical meat composition: Ash [3]: 1.14%
chemical meat composition: Dry substance [3]: 25.18%
chemical meat composition: Fat [3]: 2.52%
chemical meat composition: Protein [3]: 21.52%
chemical meat composition: Water [3]: 73.28%
